A short description of data set [1]: Compound solubility in water. In kind it is physicochemical.
In the next data set the target is T1, acid ceramidase (hACR) (Homo sapiens, UniProt Q13510).
T1 construct: expressed in transfected cells
T1 sequence (Q13510 22-395): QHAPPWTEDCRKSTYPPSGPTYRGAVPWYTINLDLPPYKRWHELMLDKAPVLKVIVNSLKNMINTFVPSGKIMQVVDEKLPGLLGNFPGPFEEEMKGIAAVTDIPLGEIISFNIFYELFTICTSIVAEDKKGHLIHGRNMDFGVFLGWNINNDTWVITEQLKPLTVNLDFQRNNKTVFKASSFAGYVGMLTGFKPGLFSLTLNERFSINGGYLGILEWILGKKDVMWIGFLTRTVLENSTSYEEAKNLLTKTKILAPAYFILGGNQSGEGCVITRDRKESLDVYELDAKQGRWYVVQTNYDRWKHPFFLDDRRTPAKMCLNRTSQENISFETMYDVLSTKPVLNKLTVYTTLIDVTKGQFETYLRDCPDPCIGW
Put plainly: Acid ceramidase inhibition, biochemical fluorescent assay with cell lysates overexpressing acid ceramidase (substrate Rbm14-12). The conditions noted are these: cell lysate, 1 hr preincubation at RT, pH 4.5, Rbm14-12 6.3 μM; read-out: IC50 hACR. The method in brief: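 Enzyme source was lysate from cells overexpressing acid ceramidase, 10 µg protein per reaction. Compounds were preincubated 1 h at RT in 25 mM NaAc, 100 mM NaCl, pH 4.5.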

Solubility and IC50 data for 14 molecules are collected here from US20220411388A1, “SUBSTITUTED IMIDAZOLE CARBOXAMIDES AND THEIR USE IN THE TREATMENT OF MEDICAL DISORDERS” (Bial - R&D Investments, S.A., priority 2019, published 2022).

pIC50: −log10 of the molar value. ≈ marks a conversion by molar mass, not a printed value.

On to `COc1nc(-c2ccccc2)cn1C(=O)NC1CCC(F)(F)CC1` [Example 157, N-(4,4-Difluorocyclohexyl)-2-methoxy-4-phenyl-1H-imidazole-1-carboxamide], for which the solubility in data set [1] was 1 µg/mL (≈ 2.98 µM). The pIC50 at acid ceramidase (hACR) was 6.00 to 6.70.

With `CC(C)Oc1nc(-c2cccnc2)cn1C(=O)NCCC1CC1` [Example 65, N-(2-Cyclopropylethyl)-2-isopropoxy-4-(pyridin-3-yl)-1H-imidazole-1-carboxamide], the solubility in data set [1] stood at 25 µg/mL (≈ 79.5 µM). On acid ceramidase (hACR), the pIC50 was 6.00 to 6.70.

For the molecule `COc1nc(C)cn1C(=O)NCCC1CC(F)(F)C1` [Example 166, N-(2-(3,3-Difluorocyclobutyl)ethyl)-2-methoxy-4-methyl-1H-imidazole-1-carboxamide], the solubility in data set [1] is 30 µg/mL (≈ 110 µM). On acid ceramidase (hACR), the pIC50 is 6.00 to 6.70.

Take `CC(C)CC(C)NC(=O)n1cnc(C(C)(C)C)c1` (stereo not shown) [Example 79, 4-(tert-Butyl)-N-(4-methylpentan-2-yl)-1H-imidazole-1-carboxamide]: the concentration in solution in data set [1] (solubility) came to 11 µg/mL (≈ 43.8 µM). The negative logarithm of the IC50 (pIC50) at acid ceramidase (hACR) is greater than 6.70.

`COc1nc(-c2cccnn2)cn1C(=O)NCCC(C)C` [Example 83, N-iso-Pentyl-2-methoxy-4-(pyridazin-3-yl)-1H-imidazole-1-carboxamide] had a solubility in data set [1] of 33 µg/mL (≈ 114 µM). Moreover, on acid ceramidase (hACR), the negative-log IC50 (pIC50) was 6.00 to 6.70.

In turn, `Cc1nc(-c2cccnc2)cn1C(=O)NCCC(C)C` [Example 49, N-iso-Pentyl-2-methyl-4-(pyridin-3-yl)-1H-imidazole-1-carboxamide] registered a solubility in data set [1] of 7.9 µg/mL (≈ 29 µM). Also, the negative logarithm of the IC50 (pIC50) at acid ceramidase (hACR) was greater than 6.70.

With `COc1nc(C(C)(C)C)cn1C(=O)NC(C)CC(C)C` (stereo not shown) [Example 58, 4-(tert-Butyl)-2-methoxy-N-(4-methylpentan-2-yl)-1H-imidazole-1-carboxamide], the solubility in data set [1] is 15.1 µg/mL (≈ 53.7 µM). Besides, on acid ceramidase (hACR), the pIC50 was 6.00 to 6.70.

For the molecule `CC(C)CCNC(=O)n1cnc(-c2ccccn2)c1` [Example 46, N-iso-Pentyl-4-(pyridin-2-yl)-1H-imidazole-1-carboxamide], in data set [1], the concentration in solution (solubility) came to 13.8 µg/mL (≈ 53.4 µM). Besides, the pIC50 at acid ceramidase (hACR) was 6.00 to 6.70.

The molecule `COc1nc(C(C)(C)C)cn1C(=O)NC1CCCCC1` [Example 93, 4-(tert-Butyl)-N-cyclohexyl-2-methoxy-1H-imidazole-1-carboxamide] showed a solubility in data set [1] of 8 µg/mL (≈ 28.6 µM). Moreover, the pIC50 at acid ceramidase (hACR) was 6.00 to 6.70.

`COc1nc(C)cn1C(=O)NC1CC1` [Example 148, N-Cyclopropyl-2-methoxy-4-methyl-1H-imidazole-1-carboxamide] displayed a solubility in data set [1] of 23 µg/mL (≈ 118 µM). Also, the negative logarithm of the IC50 (pIC50) on acid ceramidase (hACR) was 6.00 to 6.70.

In data set [1], `COc1nc(C(C)(C)C)cn1C(=O)NCC#CC(C)C` [Example 98, 4-(tert-Butyl)-2-methoxy-N-(4-methylpent-2-yn-1-yl)-1H-imidazole-1-carboxamide] gave a solubility of 5 µg/mL (≈ 18 µM). Further, the negative logarithm of the IC50 (pIC50) on acid ceramidase (hACR) is greater than 6.70.

The molecule `COc1nc(C(C)(C)C)cn1C(=O)NCCc1ccccc1` [Example 11, 4-tert-Butyl-2-methoxy-N-phenethyl-1H-imidazole-1-carboxamide] displayed a solubility in data set [1] of 15.1 µg/mL (≈ 50.1 µM). Further, the negative logarithm of the IC50 (pIC50) at acid ceramidase (hACR) was 6.00 to 6.70.

In the case of `O=C(NCCC1CC1)n1cnc(-c2ccns2)c1` [Example 72, N-(2-Cyclopropylethyl)-4-(iso-thiazol-5-yl)-1H-imidazole-1-carboxamide], the solubility in data set [1] came to 22 µg/mL (≈ 83.9 µM). The pIC50 on acid ceramidase (hACR) is 6.00 to 6.70.

In turn, `Cc1cn(C(=O)NC2CCC(F)(F)CC2)c(Oc2ccc(N3CCOCC3)cc2)n1` [Example 165, N-(4,4-Difluorocyclohexyl)-4-methyl-2-(4-morpholinophenoxy)-1H-imidazole-1-carboxamide] returned a solubility in data set [1] of 21 µg/mL (≈ 49.9 µM). On acid ceramidase (hACR), the pIC50 is greater than 6.70.
